System: beet armyworm eggs
Experiment: beet armyworm egg bioassay of separated, semipurified dunaimycins (96-well artificial diet)
Type: in vivo, beet armyworm (Spodoptera exigua)
Protocol: The separated, identified dunaimycins were then tested for bioactivity against beet armyworm eggs as follows. Stock solutions were provided as 15% aqueous ethanol solution of various semipurified dunaimycins, either alone or in combinations. For reference purposes, Javelin WDG (Bacillus thuringiensis subspecies Kurstaki; ThermoTrilogy Inc) was weighed out and diluted to give a 1,000 ppm stock solution (positive chemical standard). These stock solutions were transferred to a deep well microtitre plate: 1.4 ml of each stock solutions were placed in the 2 ml well across the top row (A wells 1-12). A Packard Multiprobe II liquid handling system (Perkin Elmer Inc.) then carried out a dilution program, first adding 700 μls of DI H2O to the remaining 84 wells (B-H 1-12). The four tip arm then performed a sequence of aspiration and dispensing steps to mix the samples and then transferred them into an adjoining well to give eight 50% serially diluted samples containing 700 μl per well. The robot then used a transfer program to pipette all of the serial diluted samples to labeled 96 well plates. Aliquots containing 40 μl of each dilution were dispensed into six wells across a microtitre plate containing ˜200 μl of artificial diet/well. […] Mortality was recorded as the number dead over the number treated and expressed as control corrected percent mortality. […]

CCC(O)CC1OC2(CCC1C)CC1OC(=O)/C=C\C(C)C(O)C(C)C(O)CC(O)C(C)CCCCC/C=C/C(CC(C)C)C(=O)CC(O2)C1C (centres unmarked) [Dunaimycin A1]
LD50 (ppm) BAW assay (Tested alone): Inactive up to 1000 ppm | insecticidal activity (active or inactive dunaimycin) (classification of purified species, inactive up to about 1000 ppm): Inactive

Reference: patent US8541216B2 (priority 2009, dated 2013)
